pIC50, pKi: −log10 of the molar value.
Assays:
[1] = target: T1, Neuropeptide Y receptor type 1 (Homo sapiens, UniProt P25929); type: cell membranes, Membrane; conditions: sk-n-mc; also: in other assays of this panel Not Active means under 50% inhibition at 10 µM
T1 sequence (P25929 whole entry): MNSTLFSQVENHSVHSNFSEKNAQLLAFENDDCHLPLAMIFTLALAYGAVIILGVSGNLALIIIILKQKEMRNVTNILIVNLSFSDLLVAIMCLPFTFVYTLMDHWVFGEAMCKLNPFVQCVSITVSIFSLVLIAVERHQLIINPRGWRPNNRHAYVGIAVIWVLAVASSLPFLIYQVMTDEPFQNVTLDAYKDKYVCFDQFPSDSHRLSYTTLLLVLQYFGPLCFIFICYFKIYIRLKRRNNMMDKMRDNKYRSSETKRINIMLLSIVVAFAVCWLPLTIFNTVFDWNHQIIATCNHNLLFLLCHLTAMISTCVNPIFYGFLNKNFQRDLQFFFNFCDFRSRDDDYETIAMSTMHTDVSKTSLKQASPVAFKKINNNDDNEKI

[2] = target: Tyrosine-protein kinase Fyn (Homo sapiens, UniProt P06241); assay: biochemical; type: cell-based, Insect cells; conditions: insect cells;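 also: enzymatic inhibition of Fyn kinase activity measured with Poly(Glu:Tyr) as the phosphorylation substrate; in other assays of this panel Not Active means under 50% inhibition at 10 µM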
[3] = DRUGMATRIX: Glutamate, NMDA, Agonism radioligand binding (ligand: [3H] CGP-39653); type: cell membranes, Rattus norvegicus, Wistar, Cerebral cortex, Membrane; conditions: Not Active = under 50% inhibition at 10 µM
[4] = target: T2, C-X-C chemokine receptor type 2 (Homo sapiens, UniProt P25025); type: cell membranes, CHO-K1, Membrane; conditions: cho-k1; also: in other assays of this panel Not Active means under 50% inhibition at 10 µM
T2 sequence (P25025 whole entry): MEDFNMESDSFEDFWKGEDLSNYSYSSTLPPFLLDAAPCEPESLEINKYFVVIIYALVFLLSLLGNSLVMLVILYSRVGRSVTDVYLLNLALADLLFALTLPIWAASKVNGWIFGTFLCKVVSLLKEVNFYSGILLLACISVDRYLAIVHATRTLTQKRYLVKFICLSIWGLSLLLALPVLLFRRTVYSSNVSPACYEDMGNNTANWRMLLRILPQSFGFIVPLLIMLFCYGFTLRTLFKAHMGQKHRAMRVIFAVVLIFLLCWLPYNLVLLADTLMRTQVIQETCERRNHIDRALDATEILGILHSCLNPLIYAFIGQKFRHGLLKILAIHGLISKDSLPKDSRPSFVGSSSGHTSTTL

Nitric oxide synthase 1 = Nitric oxide synthase 1 (Rattus norvegicus, UniProt P29476); type: tissue-based, Cerebellum; also: in other assays of this panel Not Active means under 50% inhibition at 10 µM
Glycine receptor = Glycine receptor (Rattus norvegicus, UniProt P22771+P24524+P07727+P20781); type: cell membranes, Wistar, Spinal cord, Membrane; also: in other assays of this panel Not Active means under 50% inhibition at 10 µM
[5] = target: 5-hydroxytryptamine receptor 2B (Homo sapiens, UniProt P41595); type: cell membranes, CHO-K1, Membrane; also: in other assays of this panel Not Active means under 50% inhibition at 10 µM
[6] = target: Beta-3 adrenergic receptor (Homo sapiens, UniProt P13945); assay: DRUGMATRIX: Adrenergic beta3 radioligand binding (ligand: [125I] Cyanopindolol); type: cell membranes, HEK293, Membrane; conditions: Not Active = under 50% inhibition at 10 µM
Chain of Beta-3 adrenergic receptor (P13945 whole entry): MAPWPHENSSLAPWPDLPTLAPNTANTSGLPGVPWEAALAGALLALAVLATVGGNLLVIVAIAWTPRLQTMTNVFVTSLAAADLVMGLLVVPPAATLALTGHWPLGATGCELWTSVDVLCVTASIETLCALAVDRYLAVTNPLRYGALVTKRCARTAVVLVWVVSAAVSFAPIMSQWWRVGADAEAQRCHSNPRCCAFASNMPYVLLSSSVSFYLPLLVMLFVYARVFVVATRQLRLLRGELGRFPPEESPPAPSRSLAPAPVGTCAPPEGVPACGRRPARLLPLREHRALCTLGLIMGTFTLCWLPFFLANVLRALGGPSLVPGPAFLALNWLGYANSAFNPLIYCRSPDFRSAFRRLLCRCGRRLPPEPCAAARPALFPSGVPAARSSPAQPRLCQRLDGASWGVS

Chain of 5-hydroxytryptamine receptor 2B (P41595 whole entry): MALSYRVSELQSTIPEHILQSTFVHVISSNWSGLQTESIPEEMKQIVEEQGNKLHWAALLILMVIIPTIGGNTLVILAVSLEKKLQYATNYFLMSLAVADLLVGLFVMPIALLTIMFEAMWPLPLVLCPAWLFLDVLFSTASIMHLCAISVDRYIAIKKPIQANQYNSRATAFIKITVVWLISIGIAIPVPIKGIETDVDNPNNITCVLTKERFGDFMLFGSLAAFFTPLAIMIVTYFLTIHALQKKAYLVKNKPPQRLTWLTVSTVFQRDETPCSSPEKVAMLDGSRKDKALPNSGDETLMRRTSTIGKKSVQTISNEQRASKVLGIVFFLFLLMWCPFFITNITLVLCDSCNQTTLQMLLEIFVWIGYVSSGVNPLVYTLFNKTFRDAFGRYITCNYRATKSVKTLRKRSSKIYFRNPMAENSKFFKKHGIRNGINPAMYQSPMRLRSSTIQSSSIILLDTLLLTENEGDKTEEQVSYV
Chain of Tyrosine-protein kinase Fyn (P06241 whole entry): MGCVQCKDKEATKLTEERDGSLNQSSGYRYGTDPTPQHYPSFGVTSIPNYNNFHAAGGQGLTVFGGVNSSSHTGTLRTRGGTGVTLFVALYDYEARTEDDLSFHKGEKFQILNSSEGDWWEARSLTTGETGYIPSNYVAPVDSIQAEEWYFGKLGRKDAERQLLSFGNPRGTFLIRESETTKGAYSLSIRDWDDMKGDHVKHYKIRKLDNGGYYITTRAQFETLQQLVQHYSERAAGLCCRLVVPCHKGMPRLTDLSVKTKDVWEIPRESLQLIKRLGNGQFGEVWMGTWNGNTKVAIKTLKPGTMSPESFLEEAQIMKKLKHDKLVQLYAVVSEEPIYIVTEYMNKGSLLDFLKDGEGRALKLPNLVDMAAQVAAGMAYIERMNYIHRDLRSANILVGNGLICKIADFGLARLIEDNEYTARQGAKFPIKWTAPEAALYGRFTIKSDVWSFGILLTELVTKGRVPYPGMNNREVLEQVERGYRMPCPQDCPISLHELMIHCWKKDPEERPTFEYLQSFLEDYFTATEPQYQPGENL
Chain of Nitric oxide synthase 1 (P29476 whole entry): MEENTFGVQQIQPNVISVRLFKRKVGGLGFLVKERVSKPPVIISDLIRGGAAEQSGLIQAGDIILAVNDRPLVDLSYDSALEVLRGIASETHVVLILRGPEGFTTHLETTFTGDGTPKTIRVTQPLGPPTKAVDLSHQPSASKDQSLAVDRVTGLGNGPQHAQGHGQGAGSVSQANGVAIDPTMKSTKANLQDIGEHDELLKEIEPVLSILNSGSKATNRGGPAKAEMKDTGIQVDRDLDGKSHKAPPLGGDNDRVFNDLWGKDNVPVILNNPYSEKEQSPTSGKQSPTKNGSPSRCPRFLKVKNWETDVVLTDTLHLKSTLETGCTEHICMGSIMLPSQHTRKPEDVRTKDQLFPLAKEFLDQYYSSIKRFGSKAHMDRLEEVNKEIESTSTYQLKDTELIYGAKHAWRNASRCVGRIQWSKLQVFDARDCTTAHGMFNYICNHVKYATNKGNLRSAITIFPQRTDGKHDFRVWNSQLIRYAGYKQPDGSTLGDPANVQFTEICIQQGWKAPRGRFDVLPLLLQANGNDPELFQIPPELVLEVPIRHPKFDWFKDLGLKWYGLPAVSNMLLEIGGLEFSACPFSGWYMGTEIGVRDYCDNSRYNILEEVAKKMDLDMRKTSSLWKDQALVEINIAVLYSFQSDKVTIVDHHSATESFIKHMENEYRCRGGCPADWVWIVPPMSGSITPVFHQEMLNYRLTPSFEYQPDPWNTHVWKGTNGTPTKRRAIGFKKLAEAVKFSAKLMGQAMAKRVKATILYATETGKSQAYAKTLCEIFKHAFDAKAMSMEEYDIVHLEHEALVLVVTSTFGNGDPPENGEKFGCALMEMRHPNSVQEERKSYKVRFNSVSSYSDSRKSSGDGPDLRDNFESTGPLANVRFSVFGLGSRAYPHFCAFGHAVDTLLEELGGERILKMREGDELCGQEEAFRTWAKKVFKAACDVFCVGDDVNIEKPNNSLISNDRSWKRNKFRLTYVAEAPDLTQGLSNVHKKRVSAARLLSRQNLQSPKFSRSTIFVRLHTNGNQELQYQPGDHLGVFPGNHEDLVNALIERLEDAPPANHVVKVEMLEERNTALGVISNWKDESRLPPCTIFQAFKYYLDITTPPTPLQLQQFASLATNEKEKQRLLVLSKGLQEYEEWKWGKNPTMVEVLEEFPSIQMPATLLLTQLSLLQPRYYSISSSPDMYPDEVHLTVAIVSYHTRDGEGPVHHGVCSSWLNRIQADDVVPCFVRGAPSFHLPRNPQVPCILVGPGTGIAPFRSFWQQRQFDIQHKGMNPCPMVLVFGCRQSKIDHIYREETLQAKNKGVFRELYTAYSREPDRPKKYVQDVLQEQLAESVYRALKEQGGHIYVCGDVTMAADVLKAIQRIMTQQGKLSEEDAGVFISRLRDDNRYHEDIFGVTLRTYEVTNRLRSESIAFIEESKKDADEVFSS

| Molecule | IC50 [1] | IC50 [2] | IC50 [3] | Ki [3] | IC50 [4] | IC50 (Nitric oxide synthase 1) | IC50 (Glycine receptor) | pIC50 ([5]; read-out: IC50) | pKi ([5]; read-out: Ki) | IC50 ([6]; hek293) | IC50 ([5]; cho-k1) | pIC50 ([6]; read-out: IC50) | pKi ([6]; read-out: Ki) | Ki [1] | Ki [2] | Ki [4] | Ki (Nitric oxide synthase 1) | Ki (Glycine receptor) | Ki ([5]; cho-k1) | Ki ([6]; hek293) |
| --- | --- | --- | --- | --- | --- | --- | --- | --- | --- | --- | --- | --- | --- | --- | --- | --- | --- | --- | --- | --- |
| CC(=O)Nc1ccc2c(c1)Cc1ccccc1-2 [2-ACETYLAMINOFLUORENE] | Not Active | Not Active | Not Active | Not Active | Not Active | Not Active | Not Active | 5.50 | 5.70 | Not Active |  |  |  |  |  |  |  |  |  |  |
| C[C@H](C(=O)O)c1ccc2oc(-c3ccc(F)cc3)nc2c1 [FLUNOXAPROFEN] | Not Active | Not Active | Not Active | Not Active | Not Active | Not Active | Not Active |  |  | Not Active | Not Active |  |  |  |  |  |  |  |  |  |
| C[C@H]1C[C@H]2[C@@H]3CCC4=CC(=O)C=C[C@]4(C)[C@@]3(F)[C@@H](O)C[C@]2(C)[C@@]1(O)C(=O)CO [BETAMETHASONE] | Not Active | Not Active | Not Active | Not Active | Not Active | Not Active | Not Active |  |  | Not Active | Not Active |  |  |  |  |  |  |  |  |  |
| CN(CCOc1ccc(C[C@H](Nc2ccccc2C(=O)c2ccccc2)C(=O)O)cc1)c1ccccn1 | Not Active | Not Active | Not Active | Not Active | Not Active | Not Active | Not Active |  |  |  | Not Active | 4.66 | 4.78 |  |  |  |  |  |  |  |
| NS(=O)(=O)c1cc(C(=O)O)c(NCc2ccco2)cc1Cl [FUROSEMIDE] | Not Active | Not Active | Not Active | Not Active | Not Active | Not Active | Not Active |  |  | Not Active | Not Active |  |  |  |  |  |  |  |  |  |
| CCN1CCN(c2cc3c(cc2F)c(=O)c(C(=O)O)cn3C2CC2)CC1 [ENROFLOXACIN] | Not Active | Not Active | Not Active | Not Active | Not Active | Not Active | Not Active |  |  | Not Active | Not Active |  |  |  |  |  |  |  |  |  |
| C[N+](C)(C)CCOP(=O)([O-])OC[C@H](O)CO | Not Active | Not Active | Not Active | Not Active | Not Active | Not Active | Not Active |  |  | Not Active | Not Active |  |  |  |  |  |  |  |  |  |
| O=C(Nc1ccc(Cl)c(Cl)c1)c1cc(Cl)cc(Cl)c1O [3,3',4',5-TETRACHLOROSALICYLANILIDE] | Not Active | Not Active | Not Active | Not Active | Not Active | Not Active | Not Active |  |  | Not Active | Not Active |  |  |  |  |  |  |  |  |  |
| O=C(O)COC(=O)Cc1ccccc1Nc1c(Cl)cccc1Cl [ACECLOFENAC] | Not Active | Not Active | Not Active | Not Active | Not Active | Not Active | Not Active |  |  | Not Active | Not Active |  |  |  |  |  |  |  |  |  |
| O=c1[nH]c2ccccc2c2ccccc12 | Not Active | Not Active | Not Active | Not Active | Not Active | Not Active | Not Active |  |  | Not Active | Not Active |  |  |  |  |  |  |  |  |  |
| C=CCN1CC[C@]23c4c5ccc(O)c4O[C@H]2/C(=N/N=C2\CC[C@@]4(O)[C@H]6Cc7ccc(O)c8c7[C@@]4(CCN6CC=C)[C@H]2O8)CC[C@@]3(O)[C@H]1C5 [NALOXONAZINE] | Not Active | Not Active | Not Active | Not Active | Not Active | Not Active | Not Active |  |  | Not Active | Not Active |  |  |  |  |  |  |  |  |  |
| ClC1=C(Cl)[C@]2(Cl)[C@@H]3[C@@H]4C[C@@H]([C@H]5O[C@@H]45)[C@@H]3[C@@]1(Cl)C2(Cl)Cl [DIELDRIN] | Not Active | Not Active | Not Active | Not Active | Not Active | Not Active | Not Active |  |  | Not Active | Not Active |  |  |  |  |  |  |  |  |  |
| COPPER(II) OXIDE | Not Active | Not Active | Not Active | Not Active | Not Active | Not Active | Not Active |  |  | Not Active | Not Active |  |  | Not Active | Not Active | Not Active | Not Active | Not Active | Not Active | Not Active |
| CCO [ALCOHOL] | Not Active | Not Active | Not Active | Not Active | Not Active | Not Active | Not Active |  |  | Not Active | Not Active |  |  |  |  |  |  |  |  |  |
| CCN(CCO)CCCC(C)Nc1ccnc2cc(Cl)ccc12 (stereo not given) [HYDROXYCHLOROQUINE] | Not Active | Not Active | Not Active | Not Active | Not Active | Not Active | Not Active |  |  | Not Active | Not Active |  |  |  |  |  |  |  |  |  |
| c1ccc2sc(SSc3nc4ccccc4s3)nc2c1 [BENZOTHIAZYL DISULFIDE] | Not Active | Not Active | Not Active | Not Active | Not Active | Not Active | Not Active |  |  | Not Active | Not Active |  |  |  |  |  |  |  |  |  |
| CC(C)Cc1ccc([C@H](C)C(=O)O)cc1 [DEXIBUPROFEN] | Not Active | Not Active | Not Active | Not Active | Not Active | Not Active | Not Active |  |  | Not Active | Not Active |  |  |  |  |  |  |  |  |  |
| Cl.NC[C@H]1CC[C@H](C(=O)Oc2ccc(CCC(=O)O)cc2)CC1 [CETRAXATE HYDROCHLORIDE] | Not Active | Not Active | Not Active | Not Active | Not Active | Not Active | Not Active |  |  | Not Active | Not Active |  |  |  |  |  |  |  |  |  |
| Nc1nc(N)c2nc(CNc3ccc(C(=O)N[C@@H](CCC(=O)O)C(=O)O)cc3)cnc2n1 [AMINOPTERIN] | Not Active | Not Active | Not Active | Not Active | Not Active | Not Active | Not Active |  |  | Not Active | Not Active |  |  |  |  |  |  |  |  |  |
| NC(=O)NC(=O)Cc1ccccc1 [PHENACEMIDE] | Not Active | Not Active | Not Active | Not Active | Not Active | Not Active | Not Active |  |  | Not Active | Not Active |  |  |  |  |  |  |  |  |  |
| C[N+](C)(C)CCOC(N)=O.[Cl-] [CARBACHOL] | Not Active | Not Active | Not Active | Not Active | Not Active | Not Active | Not Active |  |  | Not Active | Not Active |  |  |  |  |  |  |  |  |  |
| O=C1c2ccccc2C(=O)C1c1ccccc1 [PHENINDIONE] | Not Active | Not Active | Not Active | Not Active | Not Active | Not Active | Not Active |  |  | Not Active | Not Active |  |  |  |  |  |  |  |  |  |
| CC(C)NCC(O)COc1ccc(CC(N)=O)cc1 (stereo not given) [ATENOLOL] | Not Active | Not Active | Not Active | Not Active | Not Active | Not Active | Not Active |  |  | Not Active | Not Active |  |  |  |  |  |  |  |  |  |
| OC[C@H]1O[C@@H]2O[C@H]3[C@H](O)[C@@H](O)[C@@H](O[C@H]4[C@H](O)[C@@H](O)[C@@H](O[C@H]5[C@H](O)[C@@H](O)[C@@H](O[C@H]6[C@H](O)[C@@H](O)[C@@H](O[C@H]7[C@H](O)[C@@H](O)[C@@H](O[C@H]8[C@H](O)[C@@H](O)[C@@H](O[C@H]1[C@H](O)[C@H]2O)O[C@@H]8CO)O[C@@H]7CO)O[C@@H]6CO)O[C@@H]5CO)O[C@@H]4CO)O[C@@H]3CO [BETADEX] | Not Active | Not Active | Not Active | Not Active | Not Active | Not Active | Not Active |  |  | Not Active | Not Active |  |  |  |  |  |  |  |  |  |

— ChEMBL document CHEMBL1909046, “DrugMatrix in vitro pharmacology data”
